{
  "source": "ChEMBL document CHEMBL5726158",
  "about": "“5H-pyrido[3,2-B]indole compounds as anticancer agents” (2019)",
  "biological_target": "Bromodomain-containing protein 4 (Homo sapiens, UniProt O60885)",
  "experiment": "Time Resolved Fluorescence Resonance Energy Transfer (TR-FRET) Assay: The binding of compounds to bromodomain BRD4 (44-168), BRD4 (333-460), and BRD4 (1-477 or 44-460) was assessed using a time resolved fluorescent resonance energy transfer binding assay (1), that measures the binding of a fluorescently labeled probe molecule to the bromodomain protein. The bromodomain protein, fluorescent probe molecule (either a biotinylated histone peptide or a fluorescently labeled small molecule), and dose-responsed test compound are incubated together to reach thermodynamic equilibrium. In the absence of a test compound, the bromodomain and small molecule are bound, resulting in a high fluorescent signal. In the presence of a sufficient concentration of inhibitor, this interaction is disrupted resulting in a lost of fluorescent resonance energy transfer.All assay components were dissolved in buffer composition 20 mM Hepes pH 7.5, 150 mM NaCl, 5 mM DTT, 0.005% Tween 20, and 100 ug/ml BSA for BRD4 (1-477 and 44-460). The final concentrations of the bromodomain proteins are 1.6 nM BRD4(44-168), 1 nM BRD4(333-460), and 1 nM BRD4(1-477 or 44-460), and the fluorescent probe molecule is 100 nM, 50 nM, and 7.5 nM respectively. All proteins were biotinylated. […]",
  "data": [
    {"smiles": "Cc1nnn(C)c1-c1cnc2c3cc(C4CCN(C(=O)OC(C)(C)C)CC4)ccc3n([C@H](c3ccccc3)C3CCOCC3)c2c1", "values": [
      {"measurement": "IC50", "value": "< 5", "unit": "nM"}
    ]}
  ]
}
